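Cells were grown in 96-well plates and exposed to each compound for 48 hours at five concentrations; endpoints were interpolated linearly between bracketing concentrations, or set to the highest concentration if not reached. GI50: concentration for 50% inhibition of growth. TGI marks complete inhibition of growth.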
Legend:
Experiment in all cases: NCI-60 cell line screen, 48 h
NCI-H23 lung = test system: NCI-H23 lung
PC-3 prostate = test system: PC-3 prostate
ACHN renal = test system: ACHN renal
786-0 renal = test system: 786-0 renal
SK-MEL-2 melanoma = test system: SK-MEL-2 melanoma
MDA-MB-231 breast = test system: MDA-MB-231 breast
SF-295 CNS = test system: SF-295 CNS
K-562 leukemia = test system: K-562 leukemia
HS 578T breast = test system: HS 578T breast
MCF7 breast = test system: MCF7 breast
OVCAR-8 ovarian = test system: OVCAR-8 ovarian
HOP-62 NSCLC = test system: HOP-62 NSCLC
SK-MEL-28 melanoma = test system: SK-MEL-28 melanoma
SF-268 CNS = test system: SF-268 CNS
HL-60(TB) leukemia = test system: HL-60(TB) leukemia
LOX IMVI melanoma = test system: LOX IMVI melanoma
MALME-3M melanoma = test system: MALME-3M melanoma
IGROV1 ovarian = test system: IGROV1 ovarian
NCI/ADR-RES ovarian = test system: NCI/ADR-RES ovarian
HCC-2998 colon = test system: HCC-2998 colon
T-47D breast = test system: T-47D breast
DU-145 prostate = test system: DU-145 prostate
OVCAR-5 ovarian = test system: OVCAR-5 ovarian
CAKI-1 renal = test system: CAKI-1 renal
SK-OV-3 ovarian = test system: SK-OV-3 ovarian
A498 renal = test system: A498 renal
UO-31 renal = test system: UO-31 renal
U251 CNS = test system: U251 CNS
CCRF-CEM leukemia = test system: CCRF-CEM leukemia
OVCAR-3 ovarian = test system: OVCAR-3 ovarian
NCI-H226 lung = test system: NCI-H226 lung
SF-539 CNS = test system: SF-539 CNS
SK-MEL-5 melanoma = test system: SK-MEL-5 melanoma
SN12C renal = test system: SN12C renal
BT-549 breast = test system: BT-549 breast
OVCAR-4 ovarian = test system: OVCAR-4 ovarian
MOLT-4 leukemia = test system: MOLT-4 leukemia
RPMI-8226 leukemia = test system: RPMI-8226 leukemia
HCT-15 colon = test system: HCT-15 colon
UACC-62 melanoma = test system: UACC-62 melanoma
HCT-116 colon = test system: HCT-116 colon
NCI-H460 lung = test system: NCI-H460 lung
SR leukemia = test system: SR leukemia
A549 NSCLC = test system: A549 NSCLC
SNB-19 CNS = test system: SNB-19 CNS
SNB-75 CNS = test system: SNB-75 CNS
KM12 colon = test system: KM12 colon
UACC-257 melanoma = test system: UACC-257 melanoma
SW-620 colon = test system: SW-620 colon
NCI-H522 lung = test system: NCI-H522 lung
COLO 205 colon = test system: COLO 205 colon
RXF 393 renal = test system: RXF 393 renal
HT29 colon = test system: HT29 colon
M14 melanoma = test system: M14 melanoma
TK-10 renal = test system: TK-10 renal
HOP-92 NSCLC = test system: HOP-92 NSCLC

COc1cc(-c2cc(-c3cc(OC)c(OC)c(OC)c3)nc3nc(N)[nH]c(=O)c23)ccc1Oc1ccnc2cc(Cl)ccc12
GI50 (NCI-H23 lung): 3.43 µM | TGI (NCI-H23 lung): 24.9 µM | GI50 (PC-3 prostate): 3.18 µM | TGI (PC-3 prostate): > 100 µM | GI50 (ACHN renal): 2.89 µM | TGI (ACHN renal): 82.7 µM | GI50 (786-0 renal): 3.86 µM | TGI (786-0 renal): > 100 µM | GI50 (SK-MEL-2 melanoma): 2.25 µM | TGI (SK-MEL-2 melanoma): 7.68 µM | GI50 (MDA-MB-231 breast): 2.59 µM | TGI (MDA-MB-231 breast): 24.7 µM | GI50 (SF-295 CNS): 4.52 µM | TGI (SF-295 CNS): 85.5 µM | GI50 (K-562 leukemia): 0.379 µM | TGI (K-562 leukemia): > 100 µM | GI50 (HS 578T breast): 3.1 µM | TGI (HS 578T breast): > 100 µM | GI50 (MCF7 breast): 0.762 µM | TGI (MCF7 breast): > 100 µM | GI50 (OVCAR-8 ovarian): 3.17 µM | TGI (OVCAR-8 ovarian): 79.5 µM | GI50 (HOP-62 NSCLC): 2.35 µM | TGI (HOP-62 NSCLC): 16.7 µM | GI50 (SK-MEL-28 melanoma): 4.75 µM | TGI (SK-MEL-28 melanoma): > 100 µM | GI50 (SF-268 CNS): 3.43 µM | TGI (SF-268 CNS): > 100 µM | GI50 (HL-60(TB) leukemia): 2.45 µM | TGI (HL-60(TB) leukemia): 8.22 µM | GI50 (LOX IMVI melanoma): 1.27 µM | TGI (LOX IMVI melanoma): 19.8 µM | GI50 (MALME-3M melanoma): 3.5 µM | TGI (MALME-3M melanoma): > 100 µM | GI50 (IGROV1 ovarian): 4.49 µM | TGI (IGROV1 ovarian): > 100 µM | GI50 (NCI/ADR-RES ovarian): 2.14 µM | TGI (NCI/ADR-RES ovarian): > 100 µM | GI50 (HCC-2998 colon): 3.14 µM | TGI (HCC-2998 colon): 11.3 µM | GI50 (T-47D breast): 5.22 µM | TGI (T-47D breast): 58 µM | GI50 (DU-145 prostate): 3.51 µM | TGI (DU-145 prostate): > 100 µM | GI50 (OVCAR-5 ovarian): 4.76 µM | TGI (OVCAR-5 ovarian): > 100 µM | GI50 (CAKI-1 renal): 2.7 µM | TGI (CAKI-1 renal): > 100 µM | GI50 (SK-OV-3 ovarian): 2.95 µM | TGI (SK-OV-3 ovarian): 9.36 µM | GI50 (A498 renal): 16.3 µM | TGI (A498 renal): 86.4 µM | GI50 (UO-31 renal): 3.45 µM | TGI (UO-31 renal): > 100 µM | GI50 (U251 CNS): 2.46 µM | TGI (U251 CNS): 7.32 µM | GI50 (CCRF-CEM leukemia): 2.66 µM | TGI (CCRF-CEM leukemia): > 100 µM | GI50 (OVCAR-3 ovarian): 0.736 µM | TGI (OVCAR-3 ovarian): 13.6 µM | GI50 (NCI-H226 lung): 13.4 µM | TGI (NCI-H226 lung): 35.9 µM | GI50 (SF-539 CNS): 1.16 µM | TGI (SF-539 CNS): 3.18 µM | GI50 (SK-MEL-5 melanoma): 2.93 µM | TGI (SK-MEL-5 melanoma): 13.3 µM | GI50 (SN12C renal): 3.83 µM | TGI (SN12C renal): 41.8 µM | GI50 (BT-549 breast): 2.91 µM | TGI (BT-549 breast): 20.8 µM | GI50 (OVCAR-4 ovarian): 4.34 µM | TGI (OVCAR-4 ovarian): > 100 µM | GI50 (MOLT-4 leukemia): 2.78 µM | TGI (MOLT-4 leukemia): > 100 µM | GI50 (RPMI-8226 leukemia): 2.52 µM | TGI (RPMI-8226 leukemia): 10.2 µM | GI50 (HCT-15 colon): 0.457 µM | TGI (HCT-15 colon): 24.4 µM | GI50 (UACC-62 melanoma): 3.55 µM | TGI (UACC-62 melanoma): 25.2 µM | GI50 (HCT-116 colon): 1.29 µM | TGI (HCT-116 colon): 22.2 µM | GI50 (NCI-H460 lung): 3.45 µM | TGI (NCI-H460 lung): 37.7 µM | GI50 (SR leukemia): 0.468 µM | TGI (SR leukemia): 29.6 µM | GI50 (A549 NSCLC): 2.84 µM | TGI (A549 NSCLC): > 100 µM | GI50 (SNB-19 CNS): 6.62 µM | TGI (SNB-19 CNS): > 100 µM | GI50 (SNB-75 CNS): 1.9 µM | TGI (SNB-75 CNS): > 100 µM | GI50 (KM12 colon): 0.548 µM | TGI (KM12 colon): 14.9 µM | GI50 (UACC-257 melanoma): 7.08 µM | TGI (UACC-257 melanoma): 60.8 µM | GI50 (SW-620 colon): 1.35 µM | TGI (SW-620 colon): > 100 µM | GI50 (NCI-H522 lung): 2.13 µM | TGI (NCI-H522 lung): 15.5 µM | GI50 (COLO 205 colon): 12.9 µM | TGI (COLO 205 colon): 30 µM | GI50 (RXF 393 renal): 2.81 µM | TGI (RXF 393 renal): 9.35 µM | GI50 (HT29 colon): 10.5 µM | TGI (HT29 colon): 25.4 µM

Cc1ccc(C)c(/C=C2\CN(C(=O)OC(C)(C)C)C/C(=C\c3cc(C)ccc3C)C2=O)c1
GI50 (PC-3 prostate): 2.71 µM | TGI (PC-3 prostate): > 100 µM | GI50 (ACHN renal): 3.07 µM | TGI (ACHN renal): > 100 µM | GI50 (K-562 leukemia): 2.94 µM | TGI (K-562 leukemia): > 100 µM | GI50 (MCF7 breast): 1.94 µM | TGI (MCF7 breast): > 100 µM | GI50 (OVCAR-8 ovarian): 3.56 µM | TGI (OVCAR-8 ovarian): > 100 µM | GI50 (SF-268 CNS): 2.76 µM | TGI (SF-268 CNS): > 100 µM | GI50 (HL-60(TB) leukemia): 2.52 µM | TGI (HL-60(TB) leukemia): > 100 µM | GI50 (NCI/ADR-RES ovarian): 3.48 µM | TGI (NCI/ADR-RES ovarian): > 100 µM | GI50 (CAKI-1 renal): 2.89 µM | TGI (CAKI-1 renal): > 100 µM | GI50 (SK-OV-3 ovarian): > 100 µM | TGI (SK-OV-3 ovarian): > 100 µM | GI50 (M14 melanoma): 2.99 µM | TGI (M14 melanoma): > 100 µM | GI50 (CCRF-CEM leukemia): 2.49 µM | TGI (CCRF-CEM leukemia): > 100 µM | GI50 (MOLT-4 leukemia): 2.78 µM | TGI (MOLT-4 leukemia): > 100 µM | GI50 (HCT-116 colon): 1.43 µM | TGI (HCT-116 colon): 5.34 µM | GI50 (SR leukemia): 2.53 µM | TGI (SR leukemia): > 100 µM | GI50 (SNB-19 CNS): 2.68 µM | TGI (SNB-19 CNS): > 100 µM | GI50 (HT29 colon): 3.26 µM | TGI (HT29 colon): > 100 µM

COc1cc([C@@H]2c3cc4c(cc3[C@@H](Nc3ccc(C(=O)N[C@H]5CCc6cc(OC)c(OC)c(OC)c6-c6ccc(SC)c(=O)cc65)cc3)[C@H]3COC(=O)[C@H]23)OCO4)cc(OC)c1O
TGI (ACHN renal): 22.2 µM | TGI (786-0 renal): 19.7 µM | TGI (SK-MEL-2 melanoma): 15.1 µM | TGI (SF-295 CNS): > 100 µM | TGI (K-562 leukemia): > 100 µM | TGI (MCF7 breast): 83 µM | TGI (OVCAR-8 ovarian): > 100 µM | TGI (SK-MEL-28 melanoma): > 100 µM | TGI (SF-268 CNS): > 100 µM | TGI (LOX IMVI melanoma): > 100 µM | TGI (MALME-3M melanoma): 15.1 µM | TGI (TK-10 renal): > 100 µM | TGI (NCI/ADR-RES ovarian): 17.3 µM | TGI (OVCAR-5 ovarian): > 100 µM | TGI (CAKI-1 renal): 13.4 µM | TGI (A498 renal): 21.8 µM | TGI (UO-31 renal): 86.4 µM | TGI (U251 CNS): 15.2 µM | TGI (M14 melanoma): 52.2 µM | TGI (CCRF-CEM leukemia): 16.1 µM | TGI (NCI-H226 lung): > 100 µM | TGI (SF-539 CNS): > 100 µM | TGI (SN12C renal): 16.4 µM | TGI (MOLT-4 leukemia): 10.9 µM | TGI (RPMI-8226 leukemia): 38.8 µM | TGI (HCT-15 colon): > 100 µM | TGI (UACC-62 melanoma): 17.2 µM | TGI (HCT-116 colon): > 100 µM | TGI (NCI-H460 lung): 14.2 µM | TGI (SR leukemia): 0.149 µM | TGI (A549 NSCLC): > 100 µM | TGI (HOP-92 NSCLC): 19.3 µM | TGI (UACC-257 melanoma): > 100 µM | TGI (SW-620 colon): 49.1 µM | TGI (COLO 205 colon): 12.7 µM

From PubChem BioAssay (NCI)
